The values below come from patent publication US7709478B2, “Acylated 6,7,8,9-tetrahydro-5H-benzocycloheptenyl amines and their use as pharmaceutical agents” (sanofi-aventis Deutschland GmbH, priority 2001, dated 2010).

In one data set the test system is eNOS promoter. In words: Activation of eNOS transcription (eNOS promoter-luciferase reporter gene assay). The note with it: 18 h incubation; for EC50: EC50 of transcription induction ratio vs compound concentration, determined graphically, human endothelial cell line stably transfected with eNOS promoter-luciferase construct; for maximal fold induction: maximum transcription induction ratio (luciferase activity with compound / solvent alone), human endothelial cell line with eNOS promoter-luciferase construct, read-out: TIR(max). It counts as cell-based, human. In a few lines:
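Human endothelial cell line stably carrying a 3.5 kB eNOS promoter fragment driving firefly luciferase, treated 18 h with compound (0.5% DMSO final). Luciferase induction relative to solvent gave transcription induction ratio versus concentration; EC50 determined graphically.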

For `O=C(NC1CCCc2ccccc2C1)c1ccc(F)cc1` (centres unmarked) [Compound 1, 4-FLUORO-N-(6,7,8,9-TETRAHYDRO-5H-BENZOCYCLOHEPTEN-6-YL)-BENZAMIDE], the melting point was found to be 165 °C. Also, in the data set on eNOS promoter, the EC50 was 20 nM and the maximal fold induction was determined as 3.3.

Regarding `O=C(NC1CCCc2ccccc2C1O)c1ccc(F)cc1` (centres unmarked) [Compound 2, 4-FLUORO-N-(5-HYDROXY-6,7,8,9-TETRAHYDRO-5H-BENZOCYCLOHEPTEN-6-YL)-BENZAMIDE], the melting point is 156 °C. Also, in the data set on eNOS promoter, the concentration for a half-maximal effect (EC50) was 6000 nM and the maximal fold induction came to 2.2.

The molecule `Cc1nc2ccc(C(=O)N[C@H]3CCCc4ccccc4C3)cc2[nH]1` [Compound 7, (S)-2-METHYL-3H-BENZOIMIDAZOLE-5-CARBOXYLIC ACID (6,7,8,9-TETRAHYDRO-5H-BENZOCYCLOHEPTEN-6-YL)-AMIDE] came in with a melting point of 206 °C. Moreover, in the data set on eNOS promoter, the concentration for a half-maximal effect (EC50) worked out at 75 nM and the maximal fold induction came to 3.3.

`O=C(NC1CCCc2ccccc2C1)c1cc(NCc2ccccc2)ccn1` (centres unmarked) [Compound 142, 4-BENZYLAMINO-PYRIDINE-2-CARBOXYLIC ACID (6,7,8,9-TETRAHYDRO-5H-BENZOCYCLOHEPTEN-6-YL)-AMIDE]: in the data set with eNOS promoter, the concentration giving a half-maximal response (EC50) came out at 3000 nM and the maximal fold induction worked out at 2.5.

With `Nc1cccnc1C(=O)NC1CCCc2ccccc2C1` (centres unmarked) [Compound 144, 3-AMINO-PYRIDINE-2-CARBOXYLIC ACID (6,7,8,9-TETRAHYDRO-5H-BENZOCYCLOHEPTEN-6-YL)-AMIDE], in the data set on eNOS promoter, the concentration giving a half-maximal response (EC50) is 10 nM and the maximal fold induction turned out to be 2.9.

On to `CS(=O)(=O)Nc1cccnc1C(=O)NC1CCCc2ccccc2C1` (centres unmarked) [Compound 145, 3-METHANESULFONYLAMINO-PYRIDINE-2-CARBOXYLIC ACID (6,7,8,9-TETRAHYDRO-5H-BENZOCYCLOHEPTEN-6-YL)-AMIDE], for which, in the data set on eNOS promoter, the EC50 turned out to be 3800 nM and the maximal fold induction worked out at 1.6.

Regarding `Nc1ccnc(C(=O)NC2CCCc3ccccc3C2)c1` (centres unmarked) [Compound 146, 4-AMINO-PYRIDINE-2-CARBOXYLIC ACID (6,7,8,9-TETRAHYDRO-5H-BENZOCYCLOHEPTEN-6-YL)-AMIDE], in the data set with eNOS promoter, the 50% effective concentration (EC50) came to 2400 nM and the maximal fold induction worked out at 2.9.

For orientation: melting point means the temperature of the solid-liquid transition. By EC50 is commonly meant the concentration at which the effect is half-maximal.
